# From US9351965B2, “Indazole derivatives useful as ERK inhibitors” (Merck Sharp & Dohme Corp., priority 2010, dated 2016)
# Target: fully phosphorylated, active Mouse ERK2 protein (Mus musculus (Mouse), UniProt P63085)
# Experiment: Active ERK2 (aERK) IMAP assay
# Type: biochemical
# Settings: IMAP fluorescence polarization; 30 μM ATP; 30 minute pre-incubation
# Sequence of fully phosphorylated, active Mouse ERK2 protein (P63085 whole entry): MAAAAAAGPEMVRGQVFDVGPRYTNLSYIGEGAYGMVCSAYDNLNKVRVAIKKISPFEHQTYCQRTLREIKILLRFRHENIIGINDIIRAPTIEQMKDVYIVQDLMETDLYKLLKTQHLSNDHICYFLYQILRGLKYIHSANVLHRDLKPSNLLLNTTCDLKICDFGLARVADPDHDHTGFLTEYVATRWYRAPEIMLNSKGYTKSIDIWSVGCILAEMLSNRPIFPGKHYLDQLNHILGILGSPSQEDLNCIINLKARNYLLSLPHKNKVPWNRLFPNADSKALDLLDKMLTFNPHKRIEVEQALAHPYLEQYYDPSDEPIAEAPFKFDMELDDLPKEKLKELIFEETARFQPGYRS
row,SMILES,IC50
1,"Cc1cc(-c2n[nH]c3ccc(C(=O)NN4CCCC(CO)(Oc5ccc(F)cc5)C4)cc23)ccn1 (stereo not shown) [compound 148, N-[3-(4-fluorophenoxy)-3-(hydroxymethyl)-1-piperidinyl]-3-(2-methyl-4-pyridinyl)-1H-indazole-5-carboxamide]",445 nM
2,"Cc1cc(-c2n[nH]c3ccc(C(=O)NC4CCCC(CO)(Cc5ccccc5)C4)cc23)ccn1 (stereo not shown) [compound 132, N-[3-(hydroxymethyl)-3-(phenylmethyl)cyclohexyl]-3-(2-methyl-4-pyridinyl)-1H-indazole-5-carboxamide]",223 nM
3,"Cc1cc(-c2n[nH]c3ccc(C(=O)NC4CCCC(Oc5ccc(F)cc5F)C4)cc23)ccn1 (single isomer, unassigned) [compound 38, N-[3-(2,4-difluorophenoxy)cyclohexyl]-3-(2-methyl-4-pyridinyl)-1H-indazole-5-carboxamide]",476 nM
4,"Cc1cc(-c2n[nH]c3ccc(C(=O)NC4CCCC(Cn5c(C)nc6cnccc65)C4)cc23)ccn1 (stereo not shown) [compound 116, N-[3-[(2-methyl-1H-imidazo[4,5-c]pyridiN-1-yl)methyl]cyclohexyl]-3-(2-methyl-4-pyridinyl)-1H-indazole-5-carboxamide]",1000 nM
5,"Cc1cc(-c2n[nH]c3ccc(C(=O)NC4CCCC(Cn5cc6cc(F)ccc6n5)C4)cc23)ccn1 (mixture of isomers) [compound 124, N-[cis/trans-3-[(5-fluoro-2H-indazol-2-yl)methyl]cyclohexyl]-3-(2-methyl-4-pyridinyl)-1H-indazole-5-carboxamide]",264 nM
6,"Cc1cc(-c2n[nH]c3ccc(C(=O)NC4CCCC(Cc5ccccc5F)(C(=O)O)C4)cc23)ccn1 (mixture of isomers) [compound 131, cis/trans-1-[(2-fluorophenyl)methyl]-3-[[[3-(2-methyl-4-pyridinyl)-1H-indazol-5-yl]carbonyl]amino]cyclo-hexanecarboxylic acid]",1000 nM
7,"Cc1cc(-c2n[nH]c3ccc(C(=O)N[C@@H]4CCC[C@](O)(Cn5ncc6ccccc65)C4)cc23)ccn1 [compound 65, N-[3(R)-hydroxy-3-(1H-indazol-1-ylmethyl)-1(R)-cyclohexyl]-3-(2-methyl-4-pyridinyl)-1H-indazole-5-carboxamide]",988 nM
8,"Cc1cc(-c2n[nH]c3ccc(C(=O)N[C@H]4CCC[C@@](O)(Cn5cc6cc(F)ccc6n5)C4)cc23)ccn1 (relative stereo) [compound 99, N-[trans-3-[(5-fluoro-2H-indazol-2-yl)methyl]-3-hydroxycyclohexyl]-3-(2-methyl-4-pyridinyl)-1H-indazole-5-carboxamide]",1000 nM
9,"Cc1cc(-c2n[nH]c3ccc(C(=O)N[C@H]4CCC[C@@](O)(Cn5ncc6c(F)cccc65)C4)cc23)ccn1 (relative stereo) [compound 96, N-[trans-3-[(4-fluoro-1H-indazol-1-yl)methyl]-3-hydroxycyclohexyl]-3-(2-methyl-4-pyridinyl)-1H-indazole-5-carboxamide]",577 nM
10,"Cc1cc(-c2n[nH]c3ccc(C(=O)NC4CCCC(O)(C(=O)c5ccccc5)C4)cc23)ccn1 (stereo not shown) [compound 47, N-(3-benzoyl-3-hydroxycyclohexyl)-3-(2-methyl-4-pyridinyl)-1H-indazole-5-carboxamide]",577 nM
11,"Cc1cc(-c2n[nH]c3ccc(C(=O)NC4CCCC(CO)(Cc5ccc(F)cc5)C4)cc23)ccn1 (stereo not shown) [compound 135, N-[3-[(4-fluorophenyl)methyl]-3-(hydroxymethyl)cyclohexyl]-3-(2-methyl-4-pyridinyl)-1H-indazole-5-carboxamide]",357 nM
12,"Cc1cc(-c2n[nH]c3ccc(C(=O)NC4CCCC(Oc5c(F)cccc5F)C4)cc23)ccn1 (stereo not shown) [compound 32, N-[3-(2,6-difluorophenoxy)cyclohexyl]-3-(2-methyl-4-pyridinyl)-1H-indazole-5-carboxamide]",573 nM
13,"Cc1cc(-c2n[nH]c3ccc(C(=O)N[C@H]4CCC[C@@](O)(Cn5cc6ccc(C(F)(F)F)cc6n5)C4)cc23)ccn1 (relative stereo) [compound 105, N-[trans-3-hydroxy-3-[[6-(trifluoromethyl)-2H-indazol-2-yl]methyl]cyclohexyl]-3-(2-methyl-4-pyridinyl)-1H-indazole-5-carboxamide]",1000 nM
14,"Cc1cc(-c2n[nH]c3ccc(C(=O)N[C@@H]4CCC[C@@](O)(Cn5ncc6cnccc65)C4)cc23)ccn1 (relative stereo) [compound 91, N-[cis-3-hydroxy-3-(1H-pyrazolo[4,3-c]pyridin-1-ylmethyl)cyclohexyl]-3-(2-methyl-4-pyridinyl)-1H-indazole-5-carboxamide]",563 nM
15,"COc1cccc(F)c1C[C@@]1(O)CCC[C@@H](NC(=O)c2ccc3[nH]nc(-c4ccnc(OC(C)C)c4)c3c2)C1 [compound 25, N-[3(S)-[(2-fluoro-6-methoxyphenyl)methyl]-3-hydroxy-1(R)-cyclohexyl]-3-[2-(1-methylethoxy)-4-pyridinyl]-1H-indazole-5-carboxamide]",333 nM
16,"Cc1cc(-c2n[nH]c3ccc(C(=O)N[C@H]4CCC[C@@](O)(Cn5cc6cccc(F)c6n5)C4)cc23)ccn1 (relative stereo) [compound 102, N-[trans-3-[(7-fluoro-2H-indazol-2-yl)methyl]-3-hydroxycyclohexyl]-3-(2-methyl-4-pyridinyl)-1H-indazole-5-carboxamide]",704 nM
17,"Cc1cc(-c2n[nH]c3ccc(C(=O)NC4CCCC(CO)(Cc5ccccc5F)C4)cc23)ccn1 (mixture of isomers) [compound 130, N-[cis/trans-3-[(2-fluorophenyl)methyl]-3-(hydroxymethyl)cyclohexyl]-3-(2-methyl-4-pyridinyl)-1H-indazole-5-carboxamide]",1000 nM

# Now those with a lower IC50, led by results:
row,IC50,SMILES
1,205 nM,"COC1(Cc2ccccc2F)CCCC(NC(=O)c2ccc3[nH]nc(-c4ccnc(C)c4)c3c2)C1 (stereo not shown) [compound 40, N-[3-[(2-fluorophenyl)methyl]-3-methoxycyclohexyl]-3-(2-methyl-4-pyridinyl)-1H-indazole-5-carboxamide]"
2,193 nM,"Cc1cc(-c2n[nH]c3ccc(C(=O)NN4CCCC(CO)(Cc5ccccc5F)C4)cc23)ccn1 (stereo not shown) [compound 151, N-[3-[(2-fluorophenyl)methyl]-3-(hydroxymethyl)-1-piperidinyl]-3-(2-methyl-4-pyridinyl)-1H-indazole-5-carboxamide]"
3,140 nM,"CC(C)Oc1ccc(-c2n[nH]c3ccc(C(=O)N[C@@H]4CCC[C@](O)(Cc5c(F)cccc5F)C4)cc23)cn1 [compound 18, N-[3(S)-[(2,6-difluorophenyl)methyl]-3-hydroxy-1(R)-cyclohexyl]-3-[6-(1-methylethoxy)-3-pyridinyl]-1H-indazole-5-carboxamide]"
4,114 nM,"Cc1cc(-c2n[nH]c3ccc(C(=O)NC4CCCC(Oc5ccccc5F)C4)cc23)ccn1 (stereo not shown) [compound 33, N-[3-(2-fluorophenoxy)cyclohexyl]-3-(2-methyl-4-pyridinyl)-1H-indazole-5-carboxamide]"
5,107 nM,"Cc1cc(-c2n[nH]c3ccc(C(=O)N[C@H]4CCC[C@](O)(Cn5ncc6ccc(C(F)(F)F)cc65)C4)cc23)ccn1 (relative stereo) [compound 106, N-[cis-3-hydroxy-3-[[6-(trifluoromethyl)-1H-indazol-1-yl]methyl]cyclohexyl]-3-(2-methyl-4-pyridinyl)-1H-indazole-5-carboxamide]"
6,106 nM,"Cc1cc(-c2n[nH]c3ccc(C(=O)NC4CCCC(O)(C(F)(F)c5ccccc5)C4)cc23)ccn1 (stereo not shown) [compound 48, N-[3-(difluorophenylmethyl)-3-hydroxycyclohexyl]-3-(2-methyl-4-pyridinyl)-1H-indazole-5-carboxamide]"
7,74.3 nM,"Cc1cc(-c2n[nH]c3ccc(C(=O)N[C@H]4CCC[C@@](O)(Cn5ncc6cccc(F)c65)C4)cc23)ccn1 (relative stereo) [compound 104, N-[trans-3-[(7-fluoro-1H-indazol-1-yl)methyl]-3-hydroxycyclohexyl]-3-(2-methyl-4-pyridinyl)-1H-indazole-5-carboxamide]"
8,35 nM,"Cc1cc(-c2n[nH]c3ccc(C(=O)N[C@@H]4CCC[C@@](O)(Cn5cc6ccccc6n5)C4)cc23)ccn1 (relative stereo) [compound 94, N-[cis-3-hydroxy-3-(2H-indazol-2-ylmethyl)cyclohexyl]-3-(2-methyl-4-pyridinyl)-1H-indazole-5-carboxamide]"
9,21.1 nM,"Cn1cc2cc(-c3n[nH]c4ccc(C(=O)NC5CCCC(Cn6cnc7ccccc76)C5)cc34)ccc2n1 (stereo not shown) [compound 109, N-[3-(1H-benzimidazol-1-ylmethyl)cyclohexyl]-3-(2-methyl-2H-indazol-5-yl)-1H-indazole-5-carboxamide]"
10,19.9 nM,"Cn1cc2cc(-c3n[nH]c4ccc(C(=O)N[C@@H]5CCC[C@@](O)(Cn6cnc7ccccc76)C5)cc34)ccc2n1 (relative stereo) [compound 62, N-[cis-3-(1H-benzimidazol-1-ylmethyl)-3-hydroxycyclohexyl]-3-(2-methyl-2H-indazol-5-yl)-1H-indazole-5-carboxamide]"
11,14.4 nM,"Cc1nc2ccc(-c3n[nH]c4ccc(C(=O)N[C@@H]5CCC[C@](O)(Cc6ccccc6F)C5)cc34)cn2n1 [compound 12, N-[3(S)-[(2-fluorophenyl)methyl]-3-hydroxy-1(R)-cyclohexyl]-3-(2-methyl[1,2,4]triazolo[1,5-a]pyridin-6-yl)-1H-indazole-5-carboxamide]"
12,10.8 nM,"Cc1cc(-c2n[nH]c3ccc(C(=O)N[C@@H]4CCC[C@@](O)(CN5C(=O)Cc6ccccc65)C4)cc23)ccn1 (relative stereo) [compound 92, N-[cis-3-[(2,3-dihydro-2-oxo-1H-indol-1-yl)methyl]-3-hydroxycyclohexyl]-3-(2-methyl-4-pyridinyl)-1H-indazole-5-carboxamide]"
13,10.7 nM,"Cc1cc(-c2n[nH]c3ccc(C(=O)NC4CCCC(Cn5ncc6ccccc65)C4)cc23)ccn1 (stereo not shown) [compound 123, N-[3-(1H-indazol-1-ylmethyl)cyclohexyl]-3-(2-methyl-4-pyridinyl)-1H-indazole-5-carboxamide]"
14,2 nM,"COc1cccc(F)c1C[C@@]1(O)CCC[C@@H](NC(=O)c2ccc3[nH]nc(-c4ccnc(C)c4)c3c2)C1 [compound 22, N-[3(S)-[(2-fluoro-6-methoxyphenyl)methyl]-3-hydroxy-1(R)-cyclohexyl]-3-(2-methyl-4-pyridinyl)-1H-indazole-5-carboxamide]"
